System: relapsed or refractory, rituximab-naive or -sensitive follicular B-cell NHL
Experiment: Time to next anti-lymphoma therapy, Vc-R vs rituximab study, by biomarker
Format: in vivo, human
Set-up: Median, Time to Next Anti-Lymphoma Therapy / Time to Next Anti-Lymphoma Therapy, Median: unit not given here
Description: Non-Hodgkin lymphoma (NHL) encompasses several unique malignant lymphoid disease entities that vary in clinical behavior, morphologic appearance, immunologic, and molecular phenotype. […] A randomized, open-label, active-controlled, multicenter, multinational, prospective study to compare the efficacy and safety of the combination of bortezomib and rituximab (Vc-R) to single-agent rituximab in subjects who have relapsed or refractory, rituximab-naive or -sensitive follicular B-cell NHL was performed.
Subjects were centrally randomized to Treatment Groups A (Vc-R) or B (rituximab) in a 1:1 ratio taking into account the following stratification factors: • Follicular Lymphoma International Prognostic Index (FLIPI) score (low [0 or 1 factor], intermediate [2 factors], high [≧3 factors]); • Prior rituximab therapy (yes, no); • Time since last dose of anti-lymphoma therapy (≦1 year, >1 year); • Region (United States/Canada, European Union, Rest of World).
The following clinical endpoints were included in the analysis within each treatment group and an overall comparison was made with the biomarker-related endpoints: Progression-free survival, defined as the interval between the date of randomization and the date of progressive disease (PD) or death, whichever is first reported in the ITT population; overall survival; overall response rate (complete response [CR]+CR unconfirmed [CRu]+partial response [PR]); overall CR rate (CR+CRu); duration of response; time to next anti-lymphoma therapy; and treatment free interval.

[1] = PSMB1/A171S: G/G, >1 year since last anti-lymphoma treatment
[2] = PSMB1/A171S: G/G, Ann Arbor Stage IV
[3] = PSMB1/A171S: G/G, European Union
[4] = PSMB1/A171S: G/G, High Tumor Burden
[5] = PSMB1/A171S: G/G, ≦65 years old
[6] = PSMB1/I208N: T/T, >1 year since last anti-lymphoma treatment
[7] = PSMB1/I208N: T/T, Ann Arbor Stage IV
[8] = PSMB1/I208N: T/T, European Union
[9] = PSMB1/I208N: T/T, High Tumor Burden
[10] = PSMB1/I208N: T/T, ≦65 years old
[11] = PSMB1/P11A: C/G, European Union
[12] = PSMB1/P11A: C/G, High Tumor Burden
[13] = PSMB1/P11A: G/G, >1 year since last anti-lymphoma treatment
[14] = PSMB1/P193L: C/C, >1 year since last anti-lymphoma treatment
[15] = PSMB1/P193L: C/C, Ann Arbor Stage IV
[16] = PSMB1/P193L: C/C, European Union
[17] = PSMB1/P193L: C/C, High Tumor Burden
[18] = PSMB1/P193L: C/C, ≦65 years old
[19] = PSMB2/E49X: G/G, >1 year since last anti-lymphoma treatment
[20] = PSMB2/E49X: G/G, Ann Arbor Stage IV
[21] = PSMB2/E49X: G/G, European Union
[22] = PSMB2/E49X: G/G, High Tumor Burden
[23] = PSMB2/G187V: G/G, >1 year since last anti-lymphoma treatment
[24] = PSMB2/G187V: G/G, Ann Arbor Stage IV
[25] = PSMB2/G187V: G/G, European Union
[26] = PSMB2/G187V: G/G, High Tumor Burden
[27] = PSMB2/G187V: G/G, ≦65 years old
[28] = PSMB2/L159F: C/C, >1 year since last anti-lymphoma treatment
[29] = PSMB2/L159F: C/C, Ann Arbor Stage IV
[30] = PSMB2/L159F: C/C, European Union
[31] = PSMB2/L159F: C/C, High Tumor Burden
[32] = PSMB2/L159F: C/C, ≦65 years old
[33] = PSMB5/L206M: C/C, >1 year since last anti-lymphoma treatment
[34] = PSMB5/L206M: C/C, Ann Arbor Stage IV

rituximab
Median, Time to Next Anti-Lymphoma Therapy (P65 INTENSITY CYTOPLASMIC SIGNAL: ≧2+, ≦65 years old, IRC Review): 484
Time to Next Anti-Lymphoma Therapy, Evt/N [1]: 98/165
Time to Next Anti-Lymphoma Therapy, Median [1]: 688
Time to Next Anti-Lymphoma Therapy, Evt/N [2]: 86/127
Time to Next Anti-Lymphoma Therapy, Median [2]: 457
Time to Next Anti-Lymphoma Therapy, Evt/N [3]: 75/119
Time to Next Anti-Lymphoma Therapy, Median [3]: 675
Time to Next Anti-Lymphoma Therapy, Evt/N [4]: 108/147
Time to Next Anti-Lymphoma Therapy, Median [4]: 396
Time to Next Anti-Lymphoma Therapy, Evt/N [5]: 130/198
Time to Next Anti-Lymphoma Therapy, Median [5]: 489
Time to Next Anti-Lymphoma Therapy, Evt/N [6]: 98/165
Time to Next Anti-Lymphoma Therapy, Median [6]: 688
Time to Next Anti-Lymphoma Therapy, Evt/N [7]: 86/127
Time to Next Anti-Lymphoma Therapy, Median [7]: 457
Time to Next Anti-Lymphoma Therapy, Evt/N [8]: 75/119
Time to Next Anti-Lymphoma Therapy, Median [8]: 675
Time to Next Anti-Lymphoma Therapy, Evt/N [9]: 108/147
Time to Next Anti-Lymphoma Therapy, Median [9]: 396
Time to Next Anti-Lymphoma Therapy, Evt/N (PSMB1/I208N: T/T, No Subgroup): 173/276
Time to Next Anti-Lymphoma Therapy, Median (PSMB1/I208N: T/T, No Subgroup): 546
Time to Next Anti-Lymphoma Therapy, Evt/N [10]: 130/198
Time to Next Anti-Lymphoma Therapy, Median [10]: 489
Time to Next Anti-Lymphoma Therapy, Evt/N [11]: 34/49
Time to Next Anti-Lymphoma Therapy, Median [11]: 462
Time to Next Anti-Lymphoma Therapy, Evt/N (PSMB1/P11A: C/G, Female): 42/75
Time to Next Anti-Lymphoma Therapy, Median (PSMB1/P11A: C/G, Female): 546
Time to Next Anti-Lymphoma Therapy, Evt/N [12]: 49/72
Time to Next Anti-Lymphoma Therapy, Median [12]: 358
Time to Next Anti-Lymphoma Therapy, Evt/N (PSMB1/P11A: C/G, No Subgroup): 78/127
Time to Next Anti-Lymphoma Therapy, Median (PSMB1/P11A: C/G, No Subgroup): 550
Time to Next Anti-Lymphoma Therapy, Evt/N (PSMB1/P11A: C/G, Other): 2/3
Time to Next Anti-Lymphoma Therapy, Median (PSMB1/P11A: C/G, Other): 164
Time to Next Anti-Lymphoma Therapy, Evt/N (PSMB1/P11A: C/G, White): 67/111
Time to Next Anti-Lymphoma Therapy, Median (PSMB1/P11A: C/G, White): 581
Time to Next Anti-Lymphoma Therapy, Evt/N (PSMB1/P11A: C/G, ≦65 years old): 63/96
Time to Next Anti-Lymphoma Therapy, Median (PSMB1/P11A: C/G, ≦65 years old): 546
Time to Next Anti-Lymphoma Therapy, Evt/N [13]: 17/20
Time to Next Anti-Lymphoma Therapy, Median [13]: 429
Time to Next Anti-Lymphoma Therapy, Evt/N (PSMB1/P11A: G/G, Male): 17/19
Time to Next Anti-Lymphoma Therapy, Median (PSMB1/P11A: G/G, Male): 421
Time to Next Anti-Lymphoma Therapy, Evt/N (PSMB1/P11A: G/G, No Subgroup): 30/37
Time to Next Anti-Lymphoma Therapy, Median (PSMB1/P11A: G/G, No Subgroup): 436
Time to Next Anti-Lymphoma Therapy, Evt/N (PSMB1/P11A: G/G, White): 27/32
Time to Next Anti-Lymphoma Therapy, Median (PSMB1/P11A: G/G, White): 421
Time to Next Anti-Lymphoma Therapy, Evt/N (PSMB1/P11A: G/G, ≦65 years old): 21/25
Time to Next Anti-Lymphoma Therapy, Median (PSMB1/P11A: G/G, ≦65 years old): 409
Time to Next Anti-Lymphoma Therapy, Evt/N [14]: 98/165
Time to Next Anti-Lymphoma Therapy, Median [14]: 688
Time to Next Anti-Lymphoma Therapy, Evt/N [15]: 86/127
Time to Next Anti-Lymphoma Therapy, Median [15]: 457
Time to Next Anti-Lymphoma Therapy, Evt/N [16]: 75/119
Time to Next Anti-Lymphoma Therapy, Median [16]: 675
Time to Next Anti-Lymphoma Therapy, Evt/N [17]: 108/147
Time to Next Anti-Lymphoma Therapy, Median [17]: 396
Time to Next Anti-Lymphoma Therapy, Evt/N (PSMB1/P193L: C/C, No Subgroup): 173/276
Time to Next Anti-Lymphoma Therapy, Median (PSMB1/P193L: C/C, No Subgroup): 546
Time to Next Anti-Lymphoma Therapy, Evt/N [18]: 130/198
Time to Next Anti-Lymphoma Therapy, Median [18]: 489
Time to Next Anti-Lymphoma Therapy, Evt/N [19]: 98/165
Time to Next Anti-Lymphoma Therapy, Median [19]: 688
Time to Next Anti-Lymphoma Therapy, Evt/N [20]: 86/127
Time to Next Anti-Lymphoma Therapy, Median [20]: 457
Time to Next Anti-Lymphoma Therapy, Evt/N [21]: 75/119
Time to Next Anti-Lymphoma Therapy, Median [21]: 675
Time to Next Anti-Lymphoma Therapy, Evt/N [22]: 108/147
Time to Next Anti-Lymphoma Therapy, Median [22]: 396
Time to Next Anti-Lymphoma Therapy, Evt/N (PSMB2/E49X: G/G, No Subgroup): 173/276
Time to Next Anti-Lymphoma Therapy, Median (PSMB2/E49X: G/G, No Subgroup): 546
Time to Next Anti-Lymphoma Therapy, Evt/N (PSMB2/E49X: G/G, ≦65 years old): 130/198
Time to Next Anti-Lymphoma Therapy, Median (PSMB2/E49X: G/G, ≦65 years old): 489
Time to Next Anti-Lymphoma Therapy, Evt/N [23]: 98/165
Time to Next Anti-Lymphoma Therapy, Median [23]: 688
Time to Next Anti-Lymphoma Therapy, Evt/N [24]: 86/127
Time to Next Anti-Lymphoma Therapy, Median [24]: 457
Time to Next Anti-Lymphoma Therapy, Evt/N [25]: 75/119
Time to Next Anti-Lymphoma Therapy, Median [25]: 675
Time to Next Anti-Lymphoma Therapy, Evt/N [26]: 108/147
Time to Next Anti-Lymphoma Therapy, Median [26]: 396
Time to Next Anti-Lymphoma Therapy, Evt/N (PSMB2/G187V: G/G, No Subgroup): 173/276
Time to Next Anti-Lymphoma Therapy, Median (PSMB2/G187V: G/G, No Subgroup): 546
Time to Next Anti-Lymphoma Therapy, Evt/N [27]: 130/198
Time to Next Anti-Lymphoma Therapy, Median [27]: 489
Time to Next Anti-Lymphoma Therapy, Evt/N [28]: 98/165
Time to Next Anti-Lymphoma Therapy, Median [28]: 688
Time to Next Anti-Lymphoma Therapy, Evt/N [29]: 86/127
Time to Next Anti-Lymphoma Therapy, Median [29]: 457
Time to Next Anti-Lymphoma Therapy, Evt/N [30]: 75/119
Time to Next Anti-Lymphoma Therapy, Median [30]: 675
Time to Next Anti-Lymphoma Therapy, Evt/N [31]: 108/147
Time to Next Anti-Lymphoma Therapy, Median [31]: 396
Time to Next Anti-Lymphoma Therapy, Evt/N (PSMB2/L159F: C/C, No Subgroup): 173/276
Time to Next Anti-Lymphoma Therapy, Median (PSMB2/L159F: C/C, No Subgroup): 546
Time to Next Anti-Lymphoma Therapy, Evt/N [32]: 130/198
Time to Next Anti-Lymphoma Therapy, Median [32]: 489
Time to Next Anti-Lymphoma Therapy, Evt/N [33]: 98/165
Time to Next Anti-Lymphoma Therapy, Median [33]: 688
Time to Next Anti-Lymphoma Therapy, Evt/N [34]: 86/127
Time to Next Anti-Lymphoma Therapy, Median [34]: 457
Time to Next Anti-Lymphoma Therapy, Evt/N (PSMB5/L206M: C/C, European Union): 75/119

Source: patent US9322066B2, “Predictors for cancer treatment” (priority 2011, dated 2016)
